Reference: US12077503B2, “Substituted cyclic amides and their use as herbicides” (FMC CORPORATION, priority 2015, dated 2024)

Key:
Format in all cases: in vivo
Kochia (Kochia scoparia) [1] = assay: Test A preemergence; settings: for Kochia plant response rating (0 to 100 scale, 0 is no effect, 100 is complete control): visual injury approx. 10 d
How it was run: (§1)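 Seeds sprayed preemergence with a directed soil spray, or plants at 2 to 10 cm height and one- to two-leaf stage sprayed postemergence, with test chemicals in a non-phytotoxic solvent mixture containing surfactant, in loam soil–sand blend. Injury rated visually against untreated controls after about 10 d in greenhouse, 0 (no effect) to 100 (complete control).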

[2] = test system: barnyardgrass (Echinochloa crus-galli); assay: Test A preemergence; settings: for Barnyardgrass plant response rating (0 to 100 scale, 0 is no effect, 100 is complete control): visual injury approx. 10 d
How it was run: as §1

[3] = test system: giant foxtail (Setaria faberii); assay: Test A preemergence; settings: for Foxtail, Giant plant response rating (0 to 100 scale, 0 is no effect, 100 is complete control): visual injury approx. 10 d
How it was run: as §1

[4] = test system: pigweed (Amaranthus retroflexus); assay: Test A preemergence; settings: for Pigweed plant response rating (0 to 100 scale, 0 is no effect, 100 is complete control): visual injury approx. 10 d
[5] = test system: ragweed (common ragweed, Ambrosia elatior); assay: Test A preemergence; settings: for Ragweed plant response rating (0 to 100 scale, 0 is no effect, 100 is complete control): visual injury approx. 10 d
How it was run: as §1

[6] = test system: ryegrass, Italian (Italian ryegrass, Lolium multiflorum); assay: Test A preemergence; settings: for Ryegrass, Italian plant response rating (0 to 100 scale, 0 is no effect, 100 is complete control): visual injury approx. 10 d
How it was run: as §1

[7] = test system: Galium (catchweed bedstraw, Galium aparine); assay: Test A postemergence
How it was run: as §1

Kochia (Kochia scoparia) [8] = assay: Test A postemergence
How it was run: as §1

[9] = test system: barnyardgrass (Echinochloa crus-galli); assay: Test A postemergence
How it was run: as §1

[10] = test system: blackgrass (Alopecurus myosuroides); assay: Test A postemergence
How it was run: as §1

corn (Zea mays) = assay: Test A postemergence
How it was run: as §1

[11] = test system: giant foxtail (Setaria faberii); assay: Test A postemergence
How it was run: as §1

[12] = test system: pigweed (Amaranthus retroflexus); assay: Test A postemergence
How it was run: as §1

[13] = test system: ragweed (common ragweed, Ambrosia elatior); assay: Test A postemergence
How it was run: as §1

[14] = test system: ryegrass, Italian (Italian ryegrass, Lolium multiflorum); assay: Test A postemergence
How it was run: as §1

[15] = test system: wheat (Triticum aestivum); assay: Test A postemergence
How it was run: as §1

[16] = test system: barnyardgrass (Echinochloa crus-galli); assay: Test B flooded paddy test; settings: Flood, 250 g ai/ha, 0 to 100 scale where 0 is no effect and 100 is complete control; for Plant response rating, Barnyardgrass: 13 to 15 d
How it was run: (§2)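 Plants at 2-leaf stage flooded to 3 cm above soil, with compounds applied directly to paddy water and that depth maintained. Plants kept in greenhouse 13–15 d. Visual rating versus controls on a 0 (no effect) to 100 (complete control) scale.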

[17] = test system: ducksalad (Heteranthera limosa); assay: Test B flooded paddy test; settings: Flood, 250 g ai/ha, 0 to 100 scale where 0 is no effect and 100 is complete control; for Plant response rating, Ducksalad: 13 to 15 d
How it was run: as §2

rice (Oryra sativa) = assay: Test B flooded paddy test; settings: Flood, 250 g ai/ha, 0 to 100 scale where 0 is no effect and 100 is complete control; for Plant response rating, Rice: 13 to 15 d
How it was run: as §2

[18] = test system: sedge, umbrella (small-flower umbrella sedge, Cyperus difformis); assay: Test B flooded paddy test; settings: Flood, 250 g ai/ha, 0 to 100 scale where 0 is no effect and 100 is complete control; for Plant response rating, Sedge, Umbrella: 13 to 15 d
How it was run: as §2

[19] = 125 g ai/ha, preemergence, 0 to 100 scale (0 no effect, 100 complete control)
[20] = 125 g ai/ha, postemergence, visual injury rating on 0 to 100 scale (0 no effect, 100 complete control), approx. 10 d
[21] = 500 g ai/ha, postemergence, 0 to 100 scale, 0 no effect, 100 complete control
[22] = 125 g ai/ha, preemergence, visual injury rating, 0 to 100 scale where 0 is no effect and 100 is complete control, approximately 10 d
[23] = 500 g ai/ha, preemergence, 0 to 100 scale where 0 is no effect and 100 is complete control
[24] = 125 g ai/ha, postemergence, visual injury vs untreated controls after approx. 10 d, 0 = no effect, 100 = complete control
[25] = 500 g ai/ha, postemergence, 0 to 100 scale, 0 is no effect, 100 is complete control
[26] = 125 g ai/ha, Preemergence, visual injury after approximately 10 d, 0 to 100 scale where 0 is no effect and 100 is complete control
[27] = 125 g ai/ha, postemergence, visual rating after approx. 10 d, 0 to 100 scale (0 no effect, 100 complete control)
[28] = Postemergence, 500 g ai/ha, 0 to 100 scale where 0 is no effect and 100 is complete control

CN1CC(c2ccc3c(c2)OC(F)(F)O3)C(C(=O)Nc2cccc(F)c2F)C1=O (centres unmarked) [Compound 442]
Plant response rating, Kochia (Kochia (Kochia scoparia) [1]; [19]): 80 | Kochia plant response rating (0 to 100 scale, 0 is no effect, 100 is complete control) (Kochia (Kochia scoparia) [1]; Preemergence, 500 g ai/ha): 90 | Plant response rating, Barnyardgrass [2, 19]: 90 | Barnyardgrass plant response rating (0 to 100 scale, 0 is no effect, 100 is complete control) ([2]; Preemergence, 500 g ai/ha): 90 | Plant response rating, Foxtail, Giant [3, 19]: 90 | Foxtail, Giant plant response rating (0 to 100 scale, 0 is no effect, 100 is complete control) ([3]; Preemergence, 500 g ai/ha): 90 | Plant response rating, Pigweed [4, 19]: 70 | Pigweed plant response rating (0 to 100 scale, 0 is no effect, 100 is complete control) ([4]; Preemergence, 500 g ai/ha): 80 | Plant response rating, Ragweed [5, 19]: 20 | Ragweed plant response rating (0 to 100 scale, 0 is no effect, 100 is complete control) ([5]; Preemergence, 500 g ai/ha): 60 | Plant response rating, Ryegrass, Italian [6, 19]: 60 | Ryegrass, Italian plant response rating (0 to 100 scale, 0 is no effect, 100 is complete control) ([6]; Preemergence, 500 g ai/ha): 80 | Galium plant response rating [7, 20]: 60 | Plant response rating, Galium [7, 21]: 60 | Kochia plant response rating (Kochia (Kochia scoparia) [8]; [20]): 20 | Plant response rating, Kochia (Kochia (Kochia scoparia) [8]; [21]): 60 | Barnyardgrass plant response rating [9, 20]: 80 | Plant response rating, Barnyardgrass [9, 21]: 90 | Blackgrass plant response rating [10, 20]: 60 | Plant response rating, Blackgrass [10, 21]: 70 | Corn plant response rating (corn (Zea mays); [20]): 50 | Plant response rating, Corn (corn (Zea mays); [21]): 70 | Foxtail, Giant plant response rating [11, 20]: 80 | Plant response rating, Foxtail, Giant [11, 21]: 80 | Pigweed plant response rating [12, 20]: 60 | Plant response rating, Pigweed [12, 21]: 70 | Ragweed plant response rating [13, 20]: 0 | Plant response rating, Ragweed [13, 21]: 40 | Ryegrass, Italian plant response rating [14, 20]: 60 | Plant response rating, Ryegrass, Italian [14, 21]: 80 | Wheat plant response rating [15, 20]: 40 | Plant response rating, Wheat [15, 21]: 70 | Plant response rating, Barnyardgrass [16]: 75 | Plant response rating, Ducksalad [17]: 100 | Plant response rating, Rice (rice (Oryra sativa)): 0 | Plant response rating, Sedge, Umbrella [18]: 0

O=C1NCC(c2cccc(C(F)(F)F)c2)C1C(=O)Nc1ccccc1O (centres unmarked) [Compound 1241]
Kochia plant response rating (Kochia (Kochia scoparia) [1]; [22]): 0 | Kochia plant response rating (Kochia (Kochia scoparia) [1]; [23]): 0 | Barnyardgrass plant response rating [2, 22]: 0 | Barnyardgrass plant response rating [2, 23]: 0 | Foxtail, Giant plant response rating [3, 22]: 0 | Foxtail, Giant plant response rating [3, 23]: 0 | Pigweed plant response rating [4, 22]: 0 | Pigweed plant response rating [4, 23]: 0 | Ragweed plant response rating [5, 22]: 0 | Ragweed plant response rating [5, 23]: 0 | Ryegrass, Italian plant response rating [6, 22]: 0 | Ryegrass, Italian plant response rating [6, 23]: 0 | Galium plant response rating (0 to 100 scale) [7, 24]: 0 | Galium plant response rating [7, 25]: 0 | Kochia plant response rating (0 to 100 scale) (Kochia (Kochia scoparia) [8]; [24]): 0 | Kochia plant response rating (Kochia (Kochia scoparia) [8]; [25]): 0 | Barnyardgrass plant response rating (0 to 100 scale) [9, 24]: 0 | Barnyardgrass plant response rating [9, 25]: 30 | Blackgrass plant response rating (0 to 100 scale) [10, 24]: 0 | Blackgrass plant response rating [10, 25]: 0 | Corn plant response rating (0 to 100 scale) (corn (Zea mays); [24]): 0 | Corn plant response rating (corn (Zea mays); [25]): 20 | Foxtail, Giant plant response rating (0 to 100 scale) [11, 24]: 0 | Foxtail, Giant plant response rating [11, 25]: 20 | Pigweed plant response rating (0 to 100 scale) [12, 24]: 0 | Pigweed plant response rating [12, 25]: 0 | Ragweed plant response rating (0 to 100 scale) [13, 24]: 0 | Ragweed plant response rating [13, 25]: 0 | Ryegrass, Italian plant response rating (0 to 100 scale) [14, 24]: 0 | Ryegrass, Italian plant response rating [14, 25]: 0 | Wheat plant response rating (0 to 100 scale) [15, 24]: 0 | Barnyardgrass plant response rating [16]: 0 | Ducksalad plant response rating [17]: 0 | Rice plant response rating (rice (Oryra sativa)): 0 | Sedge, Umbrella plant response rating [18]: 0

O=C1NCC(c2cc(C(F)(F)F)cc(C(F)(F)F)c2)C1C(=O)Nc1cccc(F)c1F (centres unmarked) [Compound 588]
Plant response rating, Kochia (Kochia (Kochia scoparia) [1]; [26]): 0 | Kochia plant response rating (0 to 100 scale, 0 is no effect, 100 is complete control) (Kochia (Kochia scoparia) [1]; Preemergence, 500 g ai/ha): 0 | Plant response rating, Barnyardgrass [2, 26]: 90 | Barnyardgrass plant response rating (0 to 100 scale, 0 is no effect, 100 is complete control) ([2]; Preemergence, 500 g ai/ha): 90 | Plant response rating, Foxtail, Giant [3, 26]: 90 | Foxtail, Giant plant response rating (0 to 100 scale, 0 is no effect, 100 is complete control) ([3]; Preemergence, 500 g ai/ha): 90 | Plant response rating, Pigweed [4, 26]: 0 | Pigweed plant response rating (0 to 100 scale, 0 is no effect, 100 is complete control) ([4]; Preemergence, 500 g ai/ha): 0 | Plant response rating, Ragweed [5, 26]: 0 | Ragweed plant response rating (0 to 100 scale, 0 is no effect, 100 is complete control) ([5]; Preemergence, 500 g ai/ha): 0 | Plant response rating, Ryegrass, Italian [6, 26]: 80 | Ryegrass, Italian plant response rating (0 to 100 scale, 0 is no effect, 100 is complete control) ([6]; Preemergence, 500 g ai/ha): 50 | Plant response rating, Galium [7, 27]: 0 | Plant response rating, Galium [7, 28]: 30 | Plant response rating, Kochia (Kochia (Kochia scoparia) [8]; [27]): 0 | Plant response rating, Kochia (Kochia (Kochia scoparia) [8]; [28]): 70 | Plant response rating, Barnyardgrass [9, 27]: 80 | Plant response rating, Barnyardgrass [9, 28]: 80 | Plant response rating, Blackgrass [10, 27]: 20 | Plant response rating, Blackgrass [10, 28]: 50 | Plant response rating, Corn (corn (Zea mays); [27]): 0 | Plant response rating, Corn (corn (Zea mays); [28]): 70 | Plant response rating, Foxtail, Giant [11, 27]: 80 | Plant response rating, Foxtail, Giant [11, 28]: 80 | Plant response rating, Pigweed [12, 27]: 20 | Plant response rating, Pigweed [12, 28]: 40 | Plant response rating, Ragweed [13, 27]: 0 | Plant response rating, Ragweed [13, 28]: 50 | Plant response rating, Ryegrass, Italian [14, 27]: 0 | Plant response rating, Ryegrass, Italian [14, 28]: 50 | Plant response rating, Wheat [15, 27]: 0 | Plant response rating, Wheat [15, 28]: 40 | Plant response rating, Barnyardgrass [16]: 30 | Plant response rating, Ducksalad [17]: 70 | Plant response rating, Rice (rice (Oryra sativa)): 30 | Plant response rating, Sedge, Umbrella [18]: 0
